Laboratory results: patent US20070128217A1 (priority 2003, published 2007)

Columns and labels:
[1] = test system: antibodies in sera from SARS patients (sera 1a, 1b, 2, 6, 37, 62, London, SARS-yellow, SARS-green); format: binding, human; parameters: Binding of serum 6 to linear peptides of protein X1 of SARS-CoV Urbani / Binding of serum 37 to linear peptides of protein X1 of SARS-CoV Urbani / Binding of serum 6 to looped/cyclic peptide (PEPSCAN-ELISA) / Binding of serum 37 to looped/cyclic peptide (PEPSCAN-ELISA) / Binding of serum 37 to looped/cyclic peptides of protein X1 of SARS-CoV Urbani / Binding of serum 6 to linear peptides of protein X2 / Binding of serum 37 to linear peptides of protein X2 / Binding of serum 37 to looped/cyclic peptides of protein X2 of SARS-CoV Urbani / Binding of serum 6 to linear peptides of protein M of SARS-CoV Urbani / Binding of serum 37 to linear peptides of protein M of SARS-CoV Urbani / Binding of serum 6 to looped/cyclic peptides of protein M of SARS-CoV Urbani / Binding of serum 37 to looped/cyclic peptides of protein M of SARS-CoV Urbani / Binding of serum 6 to linear peptides of protein X3 of SARS-CoV Urbani / Binding of serum 37 to linear peptides of protein X3 of SARS-CoV Urbani / Binding of serum 37 to looped/cyclic peptides of protein X3 of SARS-CoV Urbani / Binding of serum 6 to linear peptides of protein X4 of SARS-CoV Urbani / Binding of serum 37 to linear peptides of protein X4 of SARS-CoV Urbani / Binding of serum 37 to looped/cyclic peptides of protein X4 of SARS-CoV Urbani / Binding of serum 6 to linear peptides of protein X5 of SARS-CoV Urbani / Binding of serum 37 to linear peptides of protein X5 of SARS-CoV Urbani / Binding of serum 37 to looped/cyclic peptides of protein X5 of SARS-CoV Urbani / Binding of serum 6 to linear peptides of protein N of SARS-CoV Urbani / Binding of serum 37 to linear peptides of protein N of SARS-CoV Urbani / Binding of serum 6 to linear peptide (PEPSCAN-ELISA) / Binding of serum 1a to looped/cyclic peptides of protein N of SARS-CoV Urbani / Binding of serum 1b to looped/cyclic peptides of protein N of SARS-CoV Urbani / Binding of serum 2 to looped/cyclic peptides of protein N of SARS-CoV Urbani / Binding of serum 6 to looped/cyclic peptides of protein N of SARS-CoV Urbani / Binding of serum 37 to looped/cyclic peptides of protein N of SARS-CoV Urbani / Binding of serum 62 to looped/cyclic peptides of protein N of SARS-CoV Urbani / Binding of serum London to looped/cyclic peptides of protein N of SARS-CoV Urbani / Binding of serum SARS-green to looped/cyclic peptides of protein N of SARS-CoV Urbani: unit not given here
[2] = test system: control sera (pooled serum of ten healthy LUMC hospital workers; commercial negative donor pooled serum from the Dutch bloodbank); format: binding, human; parameters: Binding of Control serum LUMC to linear peptides / Binding of Control serum Blood-bank to linear peptides / Binding of Control serum LUMC to looped peptides / Binding of Control Serum Blood-Bank to Looped peptides / Binding of Control serum LUMC to linear peptides of the protein M of SARS-CoV Urbani / Binding of Control serum Blood-bank to linear peptides of the protein M of SARS-CoV Urbani / Binding of Control serum LUMC to looped peptides of the protein M of SARS-CoV Urbani / Binding of Control Serum Blood-Bank to Looped peptides of the protein M of SARS-CoV Urbani: unit not given here
[3] = test system: rabbit serum obtained by immunizing a rabbit with the SARS-CoV strain Frankfurt 1; format: binding; parameters: Binding of a rabbit serum to linear peptides / Binding of a rabbit serum to looped peptides / Rabbit serum linear peptides / Rabbit serum looped peptides / Binding of a rabbit serum to linear peptides of protein N of SARS-CoV Urbani (Rabbit serum linear peptides) / Binding of a rabbit serum to looped/cyclic peptides of protein N of SARS-CoV Urbani (Rabbit serum looped peptides): unit not given here

For RMCKYTQSTALQELL, the “Binding of serum 1a to linear peptides of protein X2” value [1] was 0.8, the “Binding of serum 1a to looped/cyclic peptides of protein X2 of SARS-CoV Urbani” value [1] was 0.7 and the “Binding of serum 1b to linear peptides of protein X2” value [1] was 0.7. The “Binding of serum 1b to looped/cyclic peptides of protein X2 of SARS-CoV Urbani” value [1] was 0.7, the “Binding of serum 2 to linear peptides of protein X2” value [1] was 0.5 and the “Binding of serum 2 to looped/cyclic peptides of protein X2 of SARS-CoV Urbani” value [1] was 0.4. For the same sequence, the “Binding of serum 6 to linear peptides of protein X2” value [1] was 0.4, the “Binding of serum 6 to looped/cyclic peptides of protein X2 of SARS-CoV Urbani” value [1] was 0.3 and the “Binding of serum 37 to linear peptides of protein X2” value [1] was 0.7. The “Binding of serum 37 to looped/cyclic peptides of protein X2 of SARS-CoV Urbani” value [1] was 0.4, the “Binding of serum 62 to linear peptides of protein X2” value [1] was 0.8 and the “Binding of serum 62 to looped/cyclic peptides of protein X2 of SARS-CoV Urbani” value [1] was 0.7. For the same sequence, the “Binding of serum London to linear peptides of protein X2” value [1] was 0.5, the “Binding of serum London to looped/cyclic peptides of protein X2 of SARS-CoV Urbani” value [1] was 0.2 and the “Binding of serum SARS-green to linear peptides of protein X2” value [1] was 0.6. The “Binding of serum SARS-green to looped/cyclic peptides of protein X2 of SARS-CoV Urbani” value [1] was 0.6, the “Binding of serum SARS-yellow to linear peptides of protein X2” value [1] was 0.6 and the “Binding of serum SARS-yellow to looped/cyclic peptides of protein X2 of SARS-CoV Urbani” value [1] was 0.3. The “Binding of Control Serum Blood-Bank to Looped peptides” value [2] was 0.7, the “Binding of Control serum Blood-bank to linear peptides” value [2] was 0.8 and the “Binding of Control serum LUMC to linear peptides” value [2] was 0.7. For the same sequence, the “Binding of Control serum LUMC to looped peptides” value [2] was 0.6, the “Binding of a rabbit serum to linear peptides” value [3] was 0.4 and the “Binding of a rabbit serum to looped peptides” value [3] was 0.4.
With NTRGNTYSTAWLCAL the “Binding of serum 1a to linear peptides of protein X5 of SARS-CoV Urbani” value [1] was 0.9, the “Binding of serum 1a to looped/cyclic peptides of protein X5 of SARS-CoV Urbani” value [1] was 0.4 and the “Binding of serum 1b to linear peptides of protein X5 of SARS-CoV Urbani” value [1] was 0.6. For the same sequence, the “Binding of serum 1b to looped/cyclic peptides of protein X5 of SARS-CoV Urbani” value [1] was 0.2, the “Binding of serum 2 to linear peptides of protein X5 of SARS-CoV Urbani” value [1] was 0.6 and the “Binding of serum 2 to looped/cyclic peptides of protein X5 of SARS-CoV Urbani” value [1] was 0.4. The “Binding of serum 6 to linear peptides of protein X5 of SARS-CoV Urbani” value [1] was 0.7, the “Binding of serum 6 to looped/cyclic peptides of protein X5 of SARS-CoV Urbani” value [1] was 0.2 and the “Binding of serum 37 to linear peptides of protein X5 of SARS-CoV Urbani” value [1] was 0.7. The “Binding of serum 37 to looped/cyclic peptides of protein X5 of SARS-CoV Urbani” value [1] was 0.5, the “Binding of serum 62 to linear peptides of protein X5 of SARS-CoV Urbani” value [1] was 0.7 and the “Binding of serum 62 to looped/cyclic peptides of protein X5 of SARS-CoV Urbani” value [1] was 0.7. For the same sequence, the “Binding of serum London to linear peptides of protein X5 of SARS-CoV Urbani” value [1] was 0.7, the “Binding of serum London to looped/cyclic peptides of protein X5 of SARS-CoV Urbani” value [1] was 0.1 and the “Binding of serum SARS-green to linear peptides of protein X5 of SARS-CoV Urbani” value [1] was 0.6. The “Binding of serum SARS-green to looped/cyclic peptides of protein X5 of SARS-CoV Urbani” value [1] was 0.3, the “Binding of serum SARS-yellow to linear peptides of protein X5 of SARS-CoV Urbani” value [1] was 0.5 and the “Binding of serum SARS-yellow to looped/cyclic peptides of protein X5 of SARS-CoV Urbani” value [1] was 0.5. For the same sequence, the “Binding of Control Serum Blood-Bank to Looped peptides” value [2] was 0.4, the “Binding of Control serum Blood-bank to linear peptides” value [2] was 0.8 and the “Binding of Control serum LUMC to linear peptides” value [2] was 0.7. The “Binding of Control serum LUMC to looped peptides” value [2] was 0.5, the “Rabbit serum linear peptides” value [3] was 0.8 and the “Rabbit serum looped peptides” value [3] was 0.5.
LFARTRSMWSFNPET was tested, and the “Binding of serum 1a to linear peptides of protein M of SARS-CoV Urbani” value [1] was 0.8, the “Binding of serum 1a to looped/cyclic peptides of protein M of SARS-CoV Urbani” value [1] was 0.7 and the “Binding of serum 1b to linear peptides of protein M of SARS-CoV Urbani” value [1] was 0.7. The “Binding of serum 1b to looped/cyclic peptides of protein M of SARS-CoV Urbani” value [1] was 0.5, the “Binding of serum 2 to linear peptides of protein M of SARS-CoV Urbani” value [1] was 0.5 and the “Binding of serum 2 to looped/cyclic peptides of protein M of SARS-CoV Urbani” value [1] was 0.6. For the same sequence, the “Binding of serum 6 to linear peptides of protein M of SARS-CoV Urbani” value [1] was 0.6, the “Binding of serum 6 to looped/cyclic peptides of protein M of SARS-CoV Urbani” value [1] was 0.5 and the “Binding of serum 37 to linear peptides of protein M of SARS-CoV Urbani” value [1] was 0.5. For the same sequence, the “Binding of serum 37 to looped/cyclic peptides of protein M of SARS-CoV Urbani” value [1] was 0.7, the “Binding of serum 62 to linear peptides of protein M of SARS-CoV Urbani” value [1] was 0.5 and the “Binding of serum 62 to looped/cyclic peptides of protein M of SARS-CoV Urbani” value [1] was 0.6. The “Binding of serum London to linear peptides of protein M of SARS-CoV Urbani” value [1] was 0.4, the “Binding of serum London to looped/cyclic peptides of protein M of SARS-CoV Urbani” value [1] was 0.2 and the “Binding of serum SARS-green to linear peptides of protein M of SARS-CoV Urbani” value [1] was 0.5. For the same sequence, the “Binding of serum SARS-green to looped/cyclic peptides of protein M of SARS-CoV Urbani” value [1] was 0.3, the “Binding of serum SARS-yellow to linear peptides of protein M of SARS-CoV Urbani” value [1] was 0.2 and the “Binding of serum SARS-yellow to looped/cyclic peptides of protein M of SARS-CoV Urbani” value [1] was 0.7. The “Binding of Control Serum Blood-Bank to Looped peptides of the protein M of SARS-CoV Urbani” value [2] was 0.6, the “Binding of Control serum Blood-bank to linear peptides of the protein M of SARS-CoV Urbani” value [2] was 0.7 and the “Binding of Control serum LUMC to linear peptides of the protein M of SARS-CoV Urbani” value [2] was 0.8. The “Binding of Control serum LUMC to looped peptides of the protein M of SARS-CoV Urbani” value [2] was 0.6, the “Rabbit serum linear peptides” value [3] was 0.1 and the “Rabbit serum looped peptides” value [3] was 0.3.
